In brackets after ≈: the same amount, converted by molar mass.
Columns and labels:
S. aureus RN4220/pMS520 = test: MIC, agar plate dilution method, S. aureus RN4220/pMS520; assay type: cell-based, Staphylococcus aureus; conditions: for minimal inhibitory concentration (MIC): S. aureus RN4220/pMS520, MRSA; for MIC: Staphylococcus aureus, MRSA, read-out: minimal inhibitory concentration (MIC), S. aureus RN4220/pMS520, MRSA
Method: (§1) As for the representative compounds of a new aminoglycoside antibiotic of the present invention described in Examples, the minimal inhibitory concentration (MIC, μg/mL) was measured for various assay strains of bacteria using an agar plate dilution method in accordance with the method described in the Japan Society of Chemotherapy.

S. aureus MF490 = test: MIC, agar plate dilution method, S. aureus MF490; assay type: cell-based, Staphylococcus aureus; conditions: for minimal inhibitory concentration (MIC): S. aureus MF490, MRSA; for MIC: Staphylococcus aureus, MRSA, read-out: minimal inhibitory concentration (MIC)
Method: as §1

S. marcescens TH-0447 = test: MIC, agar plate dilution method, S. marcescens TH-0447; assay type: cell-based, Serratia marcescens; conditions: for minimal inhibitory concentration (MIC): S. marcescens TH-0447, AMK-resistant; for MIC: Serratia marcescens, TH0447, S. marcescens TH-0447, AMK-resistant, read-out: minimal inhibitory concentration (MIC)
Method: as §1

P. aeruginosa PAO1/GN315 = test: MIC, agar plate dilution method, P. aeruginosa PAO1/GN315; assay type: cell-based, Pseudomonas aeruginosa; conditions: for minimal inhibitory concentration (MIC): P. aeruginosa PAO1/GN315, AMK-resistant; for MIC: Pseudomonas aeruginosa, read-out: minimal inhibitory concentration (MIC), P. aeruginosa PAO1/GN315, AMK-resistant
Method: as §1

[1] = test system: A. baumannii ATCC BAA-1710; test: MIC, agar plate dilution method, A. baumannii ATCC BAA-1710; assay type: cell-based, Acinetobacter baumannii; conditions: for minimal inhibitory concentration (MIC): A. baumannii ATCC BAA-1710, MDRA; for MIC: Acinetobacter baumannii, ATCCBAA1710, A. baumannii ATCC BAA-1710, MDRA, read-out: minimal inhibitory concentration (MIC)
Method: as §1

E. faecium ATCC19434 = test: MIC, agar plate dilution method, E. faecium ATCC19434; assay type: cell-based, Enterococcus faecium; conditions: for minimal inhibitory concentration (MIC): E. faecium ATCC19434; for MIC: Enterococcus faecium, ATCC19434, E. faecium ATCC19434, read-out: minimal inhibitory concentration (MIC)
Method: as §1

P. aeruginosa MSC17707 = test: MIC, agar plate dilution method, P. aeruginosa MSC17707; assay type: cell-based, Pseudomonas aeruginosa; conditions: for minimal inhibitory concentration (MIC): P. aeruginosa MSC17707, AMK-resistant; for MIC: Pseudomonas aeruginosa, MSC17707, P. aeruginosa MSC17707, AMK-resistant, read-out: minimal inhibitory concentration (MIC)
Method: as §1

S. aureus RN4220 = test: MIC, agar plate dilution method, S. aureus RN4220; assay type: cell-based, Staphylococcus aureus; conditions: for minimal inhibitory concentration (MIC): S. aureus RN4220, Sensitive bacterium; for MIC: Staphylococcus aureus, RN4220, S. aureus RN4220, Sensitive bacterium, read-out: minimal inhibitory concentration (MIC)
Method: as §1

[2] = test system: K. pneumoniae ATCC BAA-1705; test: MIC, agar plate dilution method, K. pneumoniae ATCC BAA-1705; assay type: cell-based, Klebsiella pneumoniae; conditions: for minimal inhibitory concentration (MIC): K. pneumoniae ATCC BAA-1705, KPC-producing strain; for MIC: Klebsiella pneumoniae, ATCCBAA1705, K. pneumoniae ATCC BAA-1705, KPC-producing strain, read-out: minimal inhibitory concentration (MIC)
Method: as §1

S. marcescens GN6944 = test: MIC, agar plate dilution method, S. marcescens GN6944; assay type: cell-based, Serratia marcescens; conditions: S. marcescens GN6944, GM-resistant; for MIC: Serratia marcescens, read-out: minimal inhibitory concentration (MIC)
Method: as §1

P. aeruginosa PAO1 = test: MIC, agar plate dilution method, P. aeruginosa PAO1; assay type: cell-based, Pseudomonas aeruginosa; conditions: for minimal inhibitory concentration (MIC): P. aeruginosa PAO1, Sensitive bacterium; for MIC: Pseudomonas aeruginosa, PAO1, P. aeruginosa PAO1, Sensitive bacterium, read-out: minimal inhibitory concentration (MIC)
Method: as §1

P. aeruginosa MSC01035 = test: MIC, agar plate dilution method, P. aeruginosa MSC01035; assay type: cell-based, Pseudomonas aeruginosa; conditions: P. aeruginosa MSC01035, ABK-resistant; for MIC: Pseudomonas aeruginosa, read-out: minimal inhibitory concentration (MIC)
Method: as §1

E. coli JM109/pMW218 = test: MIC, agar plate dilution method, E. coli JM109/pMW218; assay type: cell-based, Escherichia coli; conditions: for minimal inhibitory concentration (MIC): E. coli JM109/pMW218, Sensitive bacterium; for MIC: Escherichia coli, JM109/PMW218, E. coli JM109/pMW218, Sensitive bacterium, read-out: minimal inhibitory concentration (MIC)
Method: as §1

[3] = test system: K. pneumoniae ATCC BAA-2146; test: MIC, agar plate dilution method, K. pneumoniae ATCC BAA-2146; assay type: cell-based, Klebsiella pneumoniae; conditions: for minimal inhibitory concentration (MIC): K. pneumoniae ATCC BAA-2146, NDM-producing strain; for MIC: Klebsiella pneumoniae, ATCCBAA2146, K. pneumoniae ATCC BAA-2146, NDM-producing strain, read-out: minimal inhibitory concentration (MIC)
Method: as §1

Compound | minimal inhibitory concentration (MIC) (S. aureus RN4220/pMS520) [µg/mL] | minimal inhibitory concentration (MIC) (S. aureus MF490) [µg/mL] | minimal inhibitory concentration (MIC) (S. marcescens TH-0447) [µg/mL] | minimal inhibitory concentration (MIC) (P. aeruginosa PAO1/GN315) [µg/mL] | minimal inhibitory concentration (MIC) [1] [µg/mL] | minimal inhibitory concentration (MIC) (E. faecium ATCC19434) [µg/mL] | minimal inhibitory concentration (MIC) (P. aeruginosa MSC17707) [µg/mL] | MIC (S. aureus RN4220/pMS520) [µg/mL] | MIC (S. aureus MF490) [µg/mL] | MIC (S. marcescens TH-0447) [µg/mL] | MIC (P. aeruginosa PAO1/GN315) [µg/mL] | MIC [1] [µg/mL] | MIC (E. faecium ATCC19434) [µg/mL] | MIC (S. aureus RN4220) [µg/mL] | MIC [2] [µg/mL] | MIC (S. marcescens GN6944) [µg/mL] | MIC (P. aeruginosa PAO1) [µg/mL] | MIC (P. aeruginosa MSC01035) [µg/mL] | MIC (E. coli JM109/pMW218) [µg/mL] | MIC [3] [µg/mL] | further results
4″-N-(trans-1,4-4-aminocyclohexyl)apramycin [Compound A4-g] | 4 | 16 | 16 | 16 | 32 | 32 | 32 |  |  |  |  |  |  |  |  |  |  |  |  |  | minimal inhibitory concentration (MIC) (S. aureus RN4220): 4 µg/mL; minimal inhibitory concentration (MIC) [2]: 2 µg/mL; minimal inhibitory concentration (MIC) (S. marcescens GN6944): 16 µg/mL; minimal inhibitory concentration (MIC) (P. aeruginosa PAO1): 16 µg/mL; minimal inhibitory concentration (MIC) (P. aeruginosa MSC01035): 32 µg/mL; minimal inhibitory concentration (MIC) (E. coli JM109/pMW218): 2 µg/mL; minimal inhibitory concentration (MIC) [3]: 2 µg/mL
CNC1C(O[C@H]2OC(CO)[C@@H](NC(=O)CN)[C@H](O)C2O)O[C@H]2CC(N)[C@@H](O[C@@H]3C(N)C[C@@H](N)C(O)[C@H]3O)OC2C1O (single isomer, unassigned) [Compound V1-a, 4″-N-glycylapramycin] | 4 (≈ 6.7 µM) | 16 (≈ 26.8 µM) | 8 (≈ 13.4 µM) | 4 (≈ 6.7 µM) | 8 (≈ 13.4 µM) | 32 (≈ 53.6 µM) | 8 (≈ 13.4 µM) |  |  |  |  |  |  |  |  |  |  |  |  |  | minimal inhibitory concentration (MIC) (S. aureus RN4220): 4 µg/mL (≈ 6.7 µM); minimal inhibitory concentration (MIC) [2]: 2 µg/mL (≈ 3.35 µM); minimal inhibitory concentration (MIC) (S. marcescens GN6944): 8 µg/mL (≈ 13.4 µM); minimal inhibitory concentration (MIC) (P. aeruginosa PAO1): 4 µg/mL (≈ 6.7 µM); minimal inhibitory concentration (MIC) (P. aeruginosa MSC01035): 4 µg/mL (≈ 6.7 µM); minimal inhibitory concentration (MIC) (E. coli JM109/pMW218): 2 µg/mL (≈ 3.35 µM); minimal inhibitory concentration (MIC) [3]: 2 µg/mL (≈ 3.35 µM)
CNC1C(O[C@H]2OC(CO)[C@@H](NC(=O)CN)[C@H](O)C2O)O[C@H]2CC(N)[C@@H](O[C@@H]3C(N)C[C@@H](N)C(O)[C@H]3O)OC2C1O (single isomer, unassigned) [Compound V1-i, 5-epi-4″-N-glycylapramycin] |  |  |  |  |  |  | 2 (≈ 3.35 µM) | 2 (≈ 3.35 µM) | 8 (≈ 13.4 µM) | 8 (≈ 13.4 µM) | 4 (≈ 6.7 µM) | 4 (≈ 6.7 µM) | 16 (≈ 26.8 µM) | 2 (≈ 3.35 µM) | 2 (≈ 3.35 µM) | 8 (≈ 13.4 µM) | 2 (≈ 3.35 µM) | 4 (≈ 6.7 µM) | 1 (≈ 1.68 µM) | 1 (≈ 1.68 µM) | 
NCC[C@H](O)C(=O)N[C@@H]1C[C@H](N)[C@@H](O[C@H]2O[C@H](CN)CC[C@H]2N)[C@H](O)[C@H]1O[C@H]1O[C@H](CO)[C@@H](O)[C@H](N)[C@H]1O [ABK, arbekacin, reference compound] |  |  |  |  |  |  |  | 1 (≈ 1.81 µM) | 64 (≈ 116 µM) | 64 (≈ 116 µM) | 8 (≈ 14.5 µM) | 32 (≈ 57.9 µM) | 8 (≈ 14.5 µM) | 1 (≈ 1.81 µM) | 16 (≈ 29 µM) | 8 (≈ 14.5 µM) | 2 (≈ 3.62 µM) | > 64 | 0.5 (≈ 0.905 µM) | > 64 | MIC (P. aeruginosa MSC17707): 4 µg/mL (≈ 7.24 µM)
NCC[C@H](O)C(=O)N[C@@H]1C[C@H](N)[C@@H](O[C@H]2O[C@H](CN)[C@@H](O)[C@H](O)[C@H]2O)[C@H](O)[C@H]1O[C@H]1O[C@H](CO)[C@@H](O)[C@H](N)[C@H]1O [AMK, amikacin, reference compound] |  |  |  |  |  |  |  | 64 (≈ 109 µM) | > 64 | > 64 | 64 (≈ 109 µM) | 64 (≈ 109 µM) | 32 (≈ 54.6 µM) | 2 (≈ 3.42 µM) | 32 (≈ 54.6 µM) | 8 (≈ 13.7 µM) | 2 (≈ 3.42 µM) | > 64 | 0.5 (≈ 0.854 µM) | > 64 | MIC (P. aeruginosa MSC17707): 32 µg/mL (≈ 54.6 µM)
